Reference: US8802673B2, “Heterocyclic amine derivatives” (Hoffmann-La Roche Inc, priority 2011, dated 2014)

Assays:
mouse TAAR1 = mouse TAAR1 (Mus musculus (Mouse), UniProt Q923Y8); test: Radioligand binding assay on mouse TAAR1; settings: mouse TAAR1 (first value of the cell), HEK-293 membranes; read-out: Ki (μM) mouse/rat
Description: (§1) Construction of TAAR Expression Plasmids and Stably Transfected Cell Lines
(§2) For the construction of expression plasmids the coding sequences of human, rat and mouse TAAR 1 were amplified from genomic DNA essentially as described by Lindemann et al.. The Expand High Fidelity PCR System (Roche Diagnostics) was used with 1.5 mM Mg^2+ and purified PCR products were cloned into pCR2.1-TOPO cloning vector (Invitrogen) following the instructions of the manufacturer. PCR products were subcloned into the pIRESneo2 vector (BD Clontech, Palo Alto, Calif.), and expression vectors were sequence verified before introduction in cell lines.
(§3) HEK293 cells (ATCC #CRL-1573) were cultured essentially as described by Lindemann et al. (2005). For the generation of stably transfected cell lines HEK293 cells were transfected with the pIRESneo2 expression plasmids containing the TAAR coding sequences (described above) with Lipofectamine 2000 (Invitrogen) according to the instructions of the manufacturer, and 24 hrs post transfection the culture medium was supplemented with 1 mg/ml G418 (Sigma, Buchs, Switzerland). After a culture period of about 10 d clones were isolated, expanded and tested for responsiveness to trace amines (all compounds purchased from Sigma) with the cAMP Biotrak Enzyme immunoassay (EIA) System (Amersham) following the non-acetylation EIA procedure provided by the manufacturer.
Radioligand Binding Assay on Mouse TAAR1
Membrane Preparation and Radioligand Binding.
(§4) HEK-293 cells stably expressing mouse TAAR1 were maintained at 37° C. and 5% CO2 in DMEM high glucose medium, containing fetal calf serum (10%, heat inactivated for 30 min at 56° C.), penicillin/streptomycin (1%), and 375 μg/ml geneticin (Gibco). Cells were released from culture flasks using trypsin/EDTA, harvested, washed twice with ice-cold PBS (without Ca^2+ and Mg^2+), pelleted at 1,000 rpm for 5 min at 4° C., frozen and stored at −80° C. Frozen pellets were suspended in 20 ml HEPES-NaOH (20 mM, pH 7.4) containing 10 mM EDTA and homogenized with a Polytron (PT 6000, Kinematica) at 14,000 rpm for 20 s. The homogenate was centrifuged at 48,000×g for 30 min at 4° C. Subsequently, the supernatant was removed and discarded, and the pellet resuspended in 20 ml HEPES-NaOH (20 mM, pH 7.4) containing 0.1 mM EDTA using the Polytron (20 s at 14,000 rpm). This procedure was repeated and the final pellet resuspended in HEPES-NaOH containing 0.1 mM EDTA and homogenized using the Polytron. Typically, aliquots of 2 ml membrane portions were stored at −80° C. With each new membrane batch the dissociation constant (Kd) was determined via a saturation curve. […] All compounds were tested at a broad range of concentrations (10 pM to 10 μM) in duplicates. […] The 96 deep well plates were incubated for 1 hr at 4° C. Incubations were terminated by rapid filtration through Unifilter-96 plates (Packard Instrument Company) and glass filters GF/C (Perkin Elmer) presoaked for 1 hr in polyethylenimine (0.3%) and washed 3 times with 1 ml of cold binding buffer. After addition of 45 μl of Microscint 40 (PerkinElmer) the Unifilter-96 plate was sealed and after 1 hr the ratioactivity counted using a TopCount Microplate Scintillation Counter (Packard Instrument Company).

rat TAAR1 = rat TAAR1 (Rattus norvegicus (Rat), UniProt Q923Y9); test: Radioligand binding assay on rat TAAR1; settings: rat TAAR1 (second value of the cell), HEK-293 membranes; read-out: Ki (μM) mouse/rat
Chain of rat TAAR1 (Q923Y9 whole entry): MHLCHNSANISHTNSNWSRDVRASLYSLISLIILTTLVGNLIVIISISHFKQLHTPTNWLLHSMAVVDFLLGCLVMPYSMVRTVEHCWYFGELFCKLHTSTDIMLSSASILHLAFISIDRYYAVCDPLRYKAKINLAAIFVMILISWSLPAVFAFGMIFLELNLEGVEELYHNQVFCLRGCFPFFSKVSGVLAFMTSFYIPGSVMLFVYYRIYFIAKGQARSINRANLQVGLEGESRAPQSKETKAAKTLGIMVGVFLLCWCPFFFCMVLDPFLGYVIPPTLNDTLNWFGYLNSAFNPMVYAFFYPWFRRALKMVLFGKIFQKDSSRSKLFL
Description: as §1, §2, §3
Radioligand Binding Assay on Rat TAAR1
Membrane Preparation and Radioligand Binding
as §4, with “rat” for “mouse”

Chain of mouse TAAR1 (Q923Y8 whole entry): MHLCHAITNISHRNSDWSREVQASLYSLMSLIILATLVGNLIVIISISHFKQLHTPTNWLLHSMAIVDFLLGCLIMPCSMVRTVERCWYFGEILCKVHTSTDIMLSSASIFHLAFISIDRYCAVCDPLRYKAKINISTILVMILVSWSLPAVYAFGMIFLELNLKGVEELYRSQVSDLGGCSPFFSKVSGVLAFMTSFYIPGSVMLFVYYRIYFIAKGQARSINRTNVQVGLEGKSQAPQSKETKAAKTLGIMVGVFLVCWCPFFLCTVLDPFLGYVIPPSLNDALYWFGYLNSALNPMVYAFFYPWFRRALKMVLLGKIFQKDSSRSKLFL

CCc1cnc(Nc2ccc(C3CNCCO3)cc2F)nc1 (racemic) [Example 97, (RS)-5-Ethyl-N-(2-fluoro-4-(morpholin-2-yl)phenyl)pyrimidin-2-amine]
Ki (mouse TAAR1): 0.0029 µM
Ki (rat TAAR1): 0.0056 µM

CCOc1cnc(Nc2ccc(C3CNCCO3)cc2F)nc1 (racemic) [Example 100, (RS)-(5-Ethoxy-pyrimidin-2-yl)-(2-fluoro-4-morpholin-2-yl-phenyl)-amine]
Ki (mouse TAAR1): 0.0053 µM
Ki (rat TAAR1): 0.0164 µM

CCCc1cnc(Nc2ccc(C3CNCCO3)cc2F)nc1 (racemic) [Example 101, (RS)-(2-Fluoro-4-morpholin-2-yl-phenyl)-(5-propyl-pyrimidin-2-yl)-amine]
Ki (mouse TAAR1): 0.0032 µM
Ki (rat TAAR1): 0.0041 µM

Cc1cc(C2CNCCO2)cnc1Nc1ccc(Br)cn1 (racemic) [Example 120, (RS)—N-(5-Bromopyridin-2-yl)-3-methyl-5-(morpholin-2-yl)pyridin-2-amine]
Ki (mouse TAAR1): 0.0058 µM
Ki (rat TAAR1): 0.0364 µM

Fc1cc(C2CNCCO2)ccc1Nc1ncc(C(F)(F)F)cn1 (racemic) [Example 121, (RS)-(2-Fluoro-4-morpholin-2-yl-phenyl)-(5-trifluoromethyl-pyrimidin-2-yl)-amine]
Ki (mouse TAAR1): 0.0058 µM
Ki (rat TAAR1): 0.0096 µM

Cn1ccc(Nc2ccc(C3CNCCO3)cc2)n1 (racemic) [Example 140, (RS)-(1-Methyl-1H-pyrazol-3-yl)-(4-morpholin-2-yl-phenyl)-amine]
Ki (mouse TAAR1): 0.0386 µM
Ki (rat TAAR1): 5.25 µM

Cn1cc(Br)c(Nc2ccc(C3CNCCO3)cc2)n1 (racemic) [Example 143, (RS)-(4-Bromo-1-methyl-1H-pyrazol-3-yl)-(4-morpholin-2-yl-phenyl)-amine]
Ki (mouse TAAR1): 0.418 µM
Ki (rat TAAR1): 0.284 µM

c1cc(C2CNCCO2)ccc1Nc1ccn(CC2CC2)n1 (racemic) [Example 146, (RS)-(1-Cyclopropylmethyl-1H-pyrazol-3-yl)-(4-morpholin-2-yl-phenyl)-amine]
Ki (mouse TAAR1): 0.0046 µM
Ki (rat TAAR1): 0.14 µM

FC(F)Cn1ccc(Nc2ccc(C3CNCCO3)cc2)n1 (racemic) [Example 150, (RS)-[1-(2,2-Difluoro-ethyl)-1H-pyrazol-3-yl]-(4-morpholin-2-yl-phenyl)-amine]
Ki (mouse TAAR1): 0.0134 µM
Ki (rat TAAR1): 0.149 µM

Brc1ccc(Nc2ccc([C@H]3CNCCO3)cc2)nc1 [Example 10, (S)-5-Bromo-N-(4-(morpholin-2-yl)phenyl)pyridin-2-amine]
Ki (mouse TAAR1): 0.0015 µM
Ki (rat TAAR1): 0.0337 µM

FC(F)(F)c1ccc(Nc2ccc([C@H]3CNCCO3)cc2)nc1 [Example 11, (S)—N-(4-(Morpholin-2-yl)phenyl)-5-(trifluoromethyl)pyridin-2-amine]
Ki (mouse TAAR1): 0.0015 µM
Ki (rat TAAR1): 0.0233 µM

COc1cnc(Nc2ccc([C@H]3CNCCO3)cc2)nc1 [Example 12, (5-Methoxy-pyrimidin-2-yl)-((S)-4-morpholin-2-yl-phenyl)-amine]
Ki (mouse TAAR1): 0.0055 µM
Ki (rat TAAR1): 0.259 µM

c1ccc(CCNc2ccc([C@H]3CNCCO3)cc2)cc1 [Example 13, ((S)-4-Morpholin-2-yl-phenyl)-phenethyl-amine]
Ki (mouse TAAR1): 0.0266 µM
Ki (rat TAAR1): 0.108 µM

Fc1cnc(Nc2ccc([C@H]3CNCCO3)cc2)nc1 [Example 14, (5-Fluoro-pyrimidin-2-yl)-((S)-4-morpholin-2-yl-phenyl)-amine]
Ki (mouse TAAR1): 0.0122 µM
Ki (rat TAAR1): 0.504 µM

CCc1cnc(Nc2ccc([C@H]3CNCCO3)cc2)nc1 [Example 15, (5-Ethyl-pyrimidin-2-yl)-((S)-4-morpholin-2-yl-phenyl)-amine]
Ki (mouse TAAR1): 0.0028 µM
Ki (rat TAAR1): 0.0466 µM

N#Cc1cnc(Nc2ccc([C@H]3CNCCO3)cc2)nc1 [Example 16, 2-((S)-4-Morpholin-2-yl-phenylamino)-pyrimidine-5-carbonitrile]
Ki (mouse TAAR1): 0.0276 µM
Ki (rat TAAR1): 0.448 µM

c1cc([C@H]2CNCCO2)ccc1Nc1ncc(C2CC2)cn1 [Example 17, (5-Cyclopropyl-pyrimidin-2-yl)-((S)-4-morpholin-2-yl-phenyl)-amine]
Ki (mouse TAAR1): 0.0017 µM
Ki (rat TAAR1): 0.0131 µM

Cc1cnc(Nc2ccc([C@H]3CNCCO3)cc2)nc1 [Example 18, (5-Methyl-pyrimidin-2-yl)-((S)-4-morpholin-2-yl-phenyl)-amine]
Ki (mouse TAAR1): 0.0054 µM
Ki (rat TAAR1): 0.313 µM

FC(F)(F)c1cnc(Nc2ccc([C@H]3CNCCO3)cc2)nc1 [Example 19, ((S)-4-Morpholin-2-yl-phenyl)-(5-trifluoromethyl-pyrimidin-2-yl)-amine]
Ki (mouse TAAR1): 0.0056 µM
Ki (rat TAAR1): 0.0236 µM

COc1ccc(CNc2ccc([C@H]3CNCCO3)cc2)cc1 [Example 20, (4-Methoxy-benzyl)-((S)-4-morpholin-2-yl-phenyl)-amine]
Ki (mouse TAAR1): 0.0453 µM
Ki (rat TAAR1): 0.764 µM

CCCc1cnc(Nc2ccc([C@H]3CNCCO3)cc2)nc1 [Example 21, ((S)-4-Morpholin-2-yl-phenyl)-(5-propyl-pyrimidin-2-yl)-amine]
Ki (mouse TAAR1): 0.002 µM
Ki (rat TAAR1): 0.0245 µM

Cc1ccc(CNc2ccc([C@H]3CNCCO3)cc2)cc1 [Example 22, (4-Methyl-benzyl)-((S)-4-morpholin-2-yl-phenyl)-amine]
Ki (mouse TAAR1): 0.0375 µM
Ki (rat TAAR1): 0.468 µM

N#Cc1ccc(CNc2ccc([C@H]3CNCCO3)cc2)cc1 [Example 23, 4-[((S)-4-Morpholin-2-yl-phenylamino)-methyl]-benzonitrile]
Ki (mouse TAAR1): 0.0514 µM
Ki (rat TAAR1): 1.64 µM

FC(F)(F)c1ccc(CNc2ccc([C@H]3CNCCO3)cc2)cc1 [Example 24, ((S)-4-Morpholin-2-yl-phenyl)-(4-trifluoromethyl-benzyl)-amine]
Ki (mouse TAAR1): 0.0119 µM
Ki (rat TAAR1): 0.149 µM

FC(F)(F)Oc1ccc(CNc2ccc([C@H]3CNCCO3)cc2)cc1 [Example 25, ((S)-4-Morpholin-2-yl-phenyl)-(4-trifluoromethoxy-benzyl)-amine]
Ki (mouse TAAR1): 0.0124 µM
Ki (rat TAAR1): 0.0705 µM

Clc1ccc2nc(Nc3ccc([C@H]4CNCCO4)cc3)sc2c1 [Example 26, (6-Chloro-benzothiazol-2-yl)-((S)-4-morpholin-2-yl-phenyl)-amine]
Ki (mouse TAAR1): 0.002 µM
Ki (rat TAAR1): 0.0083 µM

Brc1ccc(CNc2ccc([C@H]3CNCCO3)cc2)nc1 [Example 27, (5-Bromo-pyridin-2-ylmethyl)-((S)-4-morpholin-2-yl-phenyl)-amine]
Ki (mouse TAAR1): 0.0438 µM
Ki (rat TAAR1): 0.808 µM

COc1cccc(CNc2ccc([C@H]3CNCCO3)cc2)n1 [Example 28, (6-Methoxy-pyridin-2-ylmethyl)-((S)-4-morpholin-2-yl-phenyl)-amine]
Ki (mouse TAAR1): 0.276 µM
Ki (rat TAAR1): 0.561 µM

CCOc1cnc(Nc2ccc([C@H]3CNCCO3)cc2)nc1 [Example 29, (5-Ethoxy-pyrimidin-2-yl)-((S)-4-morpholin-2-yl-phenyl)-amine]
Ki (mouse TAAR1): 0.0042 µM
Ki (rat TAAR1): 0.155 µM
